Test system: β-TrCP1:β-catenin interaction
Assay type: binding, human
Settings: saturating concentrations of glue, TR-FRET

Q: COc1cc2c(cc1OC)CN(C(=O)c1c(Sc3c(Cl)cccc3Cl)cc(C(F)(F)F)[nH]c1=O)C2 [NRX-252262, 4-((2,6-dichlorophenyl)thio)-3-(5,6-dimethoxyisoindoline-2-carbonyl)-6-(trifluoromethyl)pyridin-2(1H)-one] was tested. Which “Effect on the β-TrCP1:β-catenin interaction” value did it give?
A: dramatically enhances the interaction between β-TrCP1 and β-catenin

From PMC12167809 (The Journal of Biological Chemistry, 2025)
